Legend:
SARS-CoV-2 3CL^pro [1] = target: T1, SARS-CoV-2 3CL^pro (Severe acute respiratory syndrome coronavirus 2, UniProt P0DTD1); assay: biochemical; details: for inhibition at 50 µM: read-out: % Inhibition at 50 μM, 50 μM compound; for % Inhibition at 50 μM: 50 μM compound
SARS-CoV = details: cited from earlier work
[2] = test system: SARS-CoV-2 (C-Tan-nCoV Wuhan strain 01); assay: microbe, parasite or virus in culture; format: cell-based
SARS-CoV-2 3CL^pro [3] = target: T1, SARS-CoV-2 3CL^pro; format: biochemical
SARS-CoV 3CL^pro = SARS-CoV 3CL^pro (Severe acute respiratory syndrome coronavirus, UniProt P0C6X7); format: biochemical

Row | SMILES | inhibition at 50 µM (SARS-CoV-2 3CL^pro [1]) | further results
1 | O=C(O)[C@H]1O[C@@H](Oc2cc3oc(-c4ccccc4)cc(=O)c3c(O)c2O)[C@H](O)[C@@H](O)[C@@H]1O [Baicalin] | ~41% | –
2 | O=c1cc(-c2ccc(O)cc2)oc2cc(O)c(O)c(O)c12 [Scutellarein] | – | inhibition of SARS-CoV (SARS-CoV): reported to inhibit
3 | COc1c(O)cc(O)c2c(=O)cc(-c3ccccc3)oc12 [Wogonin] | 6.1 ± 0.8% | % Inhibition at 50 μM (SARS-CoV-2 3CL^pro [1]): not active
4 | O=c1c(O)c(-c2ccc(O)cc2)oc2c(O)c(O)cc(O)c12 [Herbacetin] | 59.1 ± 1.9% | –
5 | O=c1cc(-c2ccccc2)oc2ccc(O)c(O)c12 [5,6-Dihydroxyflavone] | 26.6 ± 0.4% | –
6 | O=c1cc(-c2ccccc2)oc2cc(O)c(O)cc12 [6,7-Dihydroxyflavone] | 56.7 ± 2% | –
7 | O=c1cc(-c2ccccc2)oc2cc(O)c(O)c(O)c12 [Baicalein] | – | inhibition activity at the post-entry stage [2]: mainly active; EC50 ([2]; Severe acute respiratory syndrome coronavirus 2, Vero, 48 h): 2.9 µM; anti-SARS-CoV-2 3CLpro activity in cell lysate (SARS-CoV-2 3CL^pro [3]): showed inhibition activity; inhibition of SARS-CoV 3CLpro activity (SARS-CoV 3CL^pro): inhibit
8 | O=C(O)[C@H]1O[C@@H](Oc2cc3oc(-c4ccc(O)cc4)cc(=O)c3c(O)c2O)[C@H](O)[C@@H](O)[C@@H]1O [Scutellarin] | 28.9 ± 1.6% | % Inhibition at 50 μM (SARS-CoV-2 3CL^pro [1]; 50 µM): mild inhibitory activity
9 | O=c1c(O)c(-c2cc(O)c(O)c(O)c2)oc2cc(O)cc(O)c12 [Myricetin] | 30.8 ± 4.6% | inhibition of SARS-CoV (SARS-CoV): reported to inhibit
10 | O=c1cc(-c2ccccc2)oc2cc(O)cc(O)c12 [Chrysin] | 2.6 ± 1.1% | –

Reference: article PMC7850424 (Journal of Enzyme Inhibition and Medicinal Chemistry, 2021)
